Laboratory results: patent US6699849B1, “Cyclodextrin complexes of benzodiazepines” (Cyclops, ehf., priority 1998, dated 2004)

Assays:
[1] = Effect of pH and cyclodextrins on the fraction of the open form (diazepine ring-opening) of benzodiazepines; format: physicochemical
Protocol: The cyclodextrin concentration was 10% (w/v) and the benzodiazepine concentration was 1×10^−4 M. The concentration of the closed form was determined immediately after dissolving the benzodiazepine in the aqueous cyclodextrin solution and again 24 hours later (i.e. after equilibration at 23° C.). Preliminary experiments had shown that equilibrium between the closed and the open form was attained within 3 hours at 23° C.

[2] = First-order rate constant of diazepine ring-closure (regeneration of the benzodiazepine); format: physicochemical; details: pH 7.5, 37° C.
Protocol: The effect of cyclodextrins and organic solvents on the rate of diazepine ring-closure of several selected benzodiazepines was investigated. Stock solutions containing 1.0×10^−3 M of the benzodiazepine in 0.10 M aqueous hydrochloric acid solution (pH approx. 1.1) were prepared and stored at 37.0° C. The benzodiazepines were in the ring-open form in these stock solutions. Aqueous 0.50 M tris buffer (pH 7.50) solution was prepared. The observed first-order rate constant for the closing (i.e. formation) of the benzodiazepine ring was determined in the following reaction media: a) pure aqueous tris buffer solution; b) aqueous tris buffer solution containing 10% (w/v) cyclodextrin; c) tris buffer solution containing 10% (w/v) cyclodextrin and 10% (v/v) ethanol (EtOH); d) tris buffer solution containing 10% (w/v) cyclodextrin and 50% (v/v) EtOH; e) tris buffer solution containing 10% (w/v) cyclodextrin and 10% (v/v) dimethylsulfoxide (DMSO); and f) tris buffer solution containing 10% (w/v) cyclodextrin and 50% (w/v) DMSO. The stock solution (30 μl) was added to 1.50 ml of the reaction media which had previously been equilibrated to 37.0° C. and the first-order rate constant for the appearance of the closed form determined from the appearance of the closed form as observed on HPLC. Tables 5, 6 and 7 show the effects of cyclodextrins, EtOH and DMSO on the observed first-order rate constant for the regeneration of alprazolam, triazolam and midazolam, respectively. In pure aqueous buffer solutions, addition of EtOH and DMSO decreases somewhat the rate of ring closure, at least in the case of alprazolam and midazolam. Addition of cyclodextrin or the organic solvents have insignificant effect on the pH under these conditions. The dielectric constant of the reaction medium will, however, decrease upon addition of the organic solvents. It is possible that this decrease in the dielectric constant will reduce the ability of the reaction media to stabilize the transition state which could explain the decrease in the observed rate constant. […] The cyclodextrins formed stable complexes with the ring-open form of the drug and, thus, the rate decreased upon addition of cyclodextrin. […] EtOH and DMSO will compete with the diazepine ring-open form for a space in the cyclodextrin cavity resulting in decreased complexation.

[3] = Flux of alprazolam through hairless mouse skin in Franz diffusion cells
Protocol: Female hairless mice were sacrificed by cervical dislocation and their full-thickness skins removed. […] The skin was placed in Franz diffusion cells. The receptor phase consisted of phosphate buffer saline pH 7.4. The skin diffusion cells were stirred with a magnetic bar and kept at 37° C. by circulating water through an external jacket. […] The samples were kept frozen until analyzed by HPLC. The flux was calculated from the linear part of each permeability profile and the permeability coefficient obtained by dividing the flux with the concentration of dissolved drug in the donor phase.

[4] = Transdermal delivery of enalaprilat from 10% (w/v) HPβCD solutions, effect of heating with polymers; format: in vitro ADME; details: for Flux Ratio (heated/un-heated): donor phase HPβCD, pH 5.0
Source text: It is possible to enhance the cyclodextrin (CD) complexation efficacy, or efficiency, of drugs (D), and other “guest” molecules, by either increasing the apparent stability constant (KC) of the drug-cyclodextrin complex (D-CD) or increasing the apparent intrinsic solubility (S0) of the drug. For example, KC can be increased by addition of water-soluble polymers to the aqueous complexation media and S0 can be increased by ionization of the drug molecule, as described previously. […] On the other hand, if the drug-cyclodextrin complexes are prepared under conditions which ensure enhanced complexation and if the complexation efficiency decreases upon administration, then enhanced drug availability will be observed. Thus, the present invention involves: i) enhancement of the complexation efficiency and ii) reduction of the complexation efficiency after administration. For example, it is possible to enhance the complexation efficiency of many ionizable drugs by preparing the complexes at a pH where the drug is ionized but obtain decreased efficiency upon administration due to pH changes and consequent decreased ionization. One example of such a drug is phenytoin (pKa 8.1). […] However, if the pH 8.0 solution was placed in an environment which would decrease the pH from 8 to 5 (e.g. topical application to the skin), then a supersaturated solution would be formed which would result in enhanced drug availability (e.g. it would result in enhanced transdermal drug delivery). Other means to enhance S0 include reversible derivation (e.g. prodrug formation) of the guest molecule and addition of certain low molecular weight acids. The value of KC can, for example, be increased by addition of certain low molecular weight acids, by addition of water-soluble polymers to the aqueous complexation media or by using mixed solvent systems such as aqueous 10% (v/v) acetic acid. […] The effect of the polymers on the transdermal delivery of enalaprilat can, at least partly, be explained by decreased complexation efficiency (i.e. decrease in KC) at the skin surface.

[5] = 10% (w/v) HPβCD, pH 2, approx. 23° C.
[6] = 10% (w/v) HPβCD, pH 3, approx. 23° C.
[7] = 10% (w/v) HPβCD, pH 4, approx. 23° C.
[8] = 10% (w/v) SBEβCD, pH 2, approx. 23° C.
[9] = 10% (w/v) SBEβCD, pH 3, approx. 23° C.
[10] = 10% (w/v) SBEβCD, pH 4, approx. 23° C.
[11] = 10% (w/v) αCD, pH 2, approx. 23° C.
[12] = 10% (w/v) αCD, pH 3, approx. 23° C.
[13] = 10% (w/v) αCD, pH 4, approx. 23° C.
[14] = 10% (w/v) γCD, pH 2, approx. 23° C.
[15] = 10% (w/v) γCD, pH 3, approx. 23° C.
[16] = 10% (w/v) γCD, pH 4, approx. 23° C.
[17] = no cyclodextrin, pH 2, approx. 23° C.
[18] = no cyclodextrin, pH 3, approx. 23° C.
[19] = no cyclodextrin, pH 4, approx. 23° C.

Compound | Fraction open [1, 5] | Fraction open [1, 6] | Fraction open [1, 7] | Fraction open [1, 8] | Fraction open [1, 9] | Fraction open [1, 10] | Fraction open [1, 11] | Fraction open [1, 12] | Fraction open [1, 13] | Fraction open [1, 14] | Fraction open [1, 15] | Fraction open [1, 16] | Fraction open [1, 17] | Fraction open [1, 18] | Fraction open [1, 19] | observed first-order rate constant, ring formation ([2]; 10% HPβCD, 10% DMSO) | observed first-order rate constant, ring formation ([2]; 10% HPβCD, 10% EtOH) | observed first-order rate constant, ring formation ([2]; 10% HPβCD, 50% DMSO) | observed first-order rate constant, ring formation ([2]; 10% HPβCD, 50% EtOH) | observed first-order rate constant, ring formation ([2]; 10% HPβCD, pure water) | other results
CN1C(=O)CN=C(c2ccccc2)c2cc(Cl)ccc21 [Diazepam] | 0.65 | 0.29 | 0.15 | 0.63 | 0.56 | 0.22 | 0.67 | 0.51 | 0.13 | 0.41 | 0.17 | 0.13 | 0.30 | 0.23 | 0.15 |  |  |  |  |  | 
Cc1nnc2n1-c1ccc(Cl)cc1C(c1ccccc1)=NC2 [alprazolam, 8-chloro-1-methyl-6-phenyl-4H-s-triazolo[4,3-a][1,4]benzodiazepine] | 0.89 | 0.60 | 0.23 | 0.96 | 0.84 | 0.33 | 0.94 | 0.79 | 0.25 | 0.81 | 0.41 | 0.42 | 0.82 | 0.56 | 0.33 | 444 min⁻¹ | 523 min⁻¹ | 857 min⁻¹ | 707 min⁻¹ | 330 min⁻¹ | share of drug in the open form ([1]; aqueous HPβCD solution, pH 3): about 60%; observed first-order rate constant, ring formation ([2]; 10% RMβCD, 10% DMSO): 397 min⁻¹; observed first-order rate constant, ring formation ([2]; 10% RMβCD, 10% EtOH): 490 min⁻¹; observed first-order rate constant, ring formation ([2]; 10% RMβCD, 50% DMSO): 792 min⁻¹; observed first-order rate constant, ring formation ([2]; 10% RMβCD, 50% EtOH): 670 min⁻¹; observed first-order rate constant, ring formation ([2]; 10% RMβCD, pure water): 297 min⁻¹; observed first-order rate constant, ring formation ([2]; 10% SBEβCD, 10% EtOH): 518 min⁻¹; observed first-order rate constant, ring formation ([2]; 10% SBEβCD, 50% DMSO): 936 min⁻¹; observed first-order rate constant, ring formation ([2]; 10% SBEβCD, 50% EtOH): 582 min⁻¹; observed first-order rate constant, ring formation ([2]; 10% SBEβCD, pure water): 311 min⁻¹; observed first-order rate constant, ring formation ([2]; No CD, 10% DMSO): 968 min⁻¹; observed first-order rate constant, ring formation ([2]; No CD, 10% EtOH): 1150 min⁻¹; observed first-order rate constant, ring formation ([2]; No CD, 50% DMSO): 1070 min⁻¹; observed first-order rate constant, ring formation ([2]; No CD, 50% EtOH): 724 min⁻¹; observed first-order rate constant, ring formation ([2]; No CD, pure water): 1420 min⁻¹; alprazolam concentration in the donor phase (saturated) ([3]; aqueous 7% (w/v) SBEβCD, pH 3.3): 1.85 mg/mL; Flux ([3]; donor 7% (w/v) SBEβCD pH 3.3, without increasing the pH): 3.91 × 10^−4 mg/cm^2/h; Flux ([3]; donor 7% (w/v) SBEβCD, increasing the pH from 3.3 to 4.1): 4.56 × 10^−4 mg/cm^2/h; Flux Ratio ([3]; increasing the pH from 3.3 to 4.1): 1.2; Flux Ratio ([3]; without increasing the pH): 1.0
C[C@H](N[C@@H](CCc1ccccc1)C(=O)O)C(=O)N1CCC[C@H]1C(=O)O [enalaprilat] |  |  |  |  |  |  |  |  |  |  |  |  |  |  |  |  |  |  |  |  | Flux Ratio (heated/un-heated) ([4]; 0.10% HPMC): 2.6; Flux Ratio (heated/un-heated) ([4]; 0.25% PVP): 1.4; effect of polymers on transdermal delivery ([4]; polymers added to unheated vehicles): did not enhance; effect of polymers on transdermal delivery ([4]; vehicles heated after addition of the polymers): significant enhancement
Cc1nnc2n1-c1ccc(Cl)cc1C(c1ccccc1Cl)=NC2 [triazolam, 8-chloro-6-(o-chlorophenyl)-1-methyl-4H-s-triazolo[4,3-a][1,4]benzodiazepine] | 0.51 | 0.09 | 0.00 | 0.71 | 0.25 | 0.00 | 0.75 | 0.23 | 0.00 | 0.33 | 0.01 | 0.00 | 0.53 | 0.08 | 0.00 | 0.0079 min⁻¹ | 0.0092 min⁻¹ | 0.0114 min⁻¹ | 0.0102 min⁻¹ | 0.0066 min⁻¹ | observed first-order rate constant, ring formation ([2]; 10% RMβCD, 10% DMSO): 0.0078 min⁻¹; observed first-order rate constant, ring formation ([2]; 10% RMβCD, 10% EtOH): 0.0092 min⁻¹; observed first-order rate constant, ring formation ([2]; 10% RMβCD, 50% DMSO): 0.0112 min⁻¹; observed first-order rate constant, ring formation ([2]; 10% RMβCD, 50% EtOH): 0.01 min⁻¹; observed first-order rate constant, ring formation ([2]; 10% RMβCD, pure water): 0.0064 min⁻¹; observed first-order rate constant, ring formation ([2]; 10% SBEβCD, 10% DMSO): 0.0073 min⁻¹; observed first-order rate constant, ring formation ([2]; 10% SBEβCD, 10% EtOH): 0.0082 min⁻¹; observed first-order rate constant, ring formation ([2]; 10% SBEβCD, 50% DMSO): 0.0113 min⁻¹; observed first-order rate constant, ring formation ([2]; 10% SBEβCD, 50% EtOH): 0.0097 min⁻¹; observed first-order rate constant, ring formation ([2]; 10% SBEβCD, pure water): 0.0058 min⁻¹; observed first-order rate constant, ring formation ([2]; No CD, 10% DMSO): 0.0128 min⁻¹; observed first-order rate constant, ring formation ([2]; No CD, 10% EtOH): 0.0131 min⁻¹; observed first-order rate constant, ring formation ([2]; No CD, 50% DMSO): 0.0137 min⁻¹; observed first-order rate constant, ring formation ([2]; No CD, 50% EtOH): 0.0184 min⁻¹; observed first-order rate constant, ring formation ([2]; No CD, pure water): 0.0132 min⁻¹
